Several values for one entry are separate records, joined by “and”; a condition that tells them apart may be missing. Equal entries are not always repeated. Entries after “also recorded” stand apart in the source; their conditions may differ.
How the values were obtained:
rTRPM8 = target: T1, rTRPM8 (Rattus norvegicus, UniProt Q8R455); test: Whole-cell patch-clamp, HEK293-rTRPM8 cells; type: cell-based
T1 construct: expressed in transfected cells
Method: To confirm the antagonistic activity, electrophysiology (patch-clamp) studies were performed on HEK293 cells expressing the rTRPM8 channel. […] Then, using a holding voltage of −60 mV, different concentrations of RGM8-51 were used to establish the concentration/response curve for rTRPM8 current blockade.
Whole-cell patch-clamp recordings from HEK293-rTRPM8 cells were carried out 2 days after seeding on 12 mm Ø glass coverslips treated with poly-L-lysine solution (Sigma Aldrich, Spain); the intracellular pipette solution contained (in mM) 150 NaCl, 5 EGTA, 3 MgCl2 and 10 HEPES, adjusted to pH 7.2 with NaOH, and the extracellular solution contained (in mM) 150 NaCl, 6 CsCl, 1.5 CaCl2, 1 MgCl2, 10 D-glucose and 10 HEPES, adjusted to pH 7.4 with NaOH. The TRPM8 activity was measured by the application of two pulses of 100 μM menthol in a time interval of 2 min and a 30 s perfusion of the different compound concentrations before the second menthol pulse.
Data were sampled at 10 kHz (EPC10 amplifier with PatchMaster 2.53 software, HEKA Electronics, Lambrecht, Germany) and low-pass filtered at 3 kHz for analysis (PatchMaster 2.53 and GraphPad Prism 6.0, Graphpad Software, San Diego, CA, USA). The series resistance was <10 MΩ and to minimize voltage errors was compensated by 60–80%. […] Cell capacitance was measured and used to estimate the current density (J, pA/pF).
Data analysis: For the whole-cell patch-clamp experiments, results are expressed as the percentage of remaining activation of the TRPM8 channel. This is calculated by normalizing the ratio (p2/p1) of testing conditions to the ratio (p2/p1) of the control condition. […] All data are expressed as the mean ± standard error of the mean (SEM) (n = 5–8). In the current-clamp experiments, the change in membrane potential is expressed as the difference between the resting membrane potential and the membrane potential after the addition of a stimuli. Data were analyzed as previously described (GraphPad 6.0, one-way ANOVA followed by Bonferroni multiple comparisons test, and ROUT method, Q = 10%).

rats = test: Behaviour observed after i.p. injection in the CCI study; type: in vivo, rat; conditions: i.p. 30 mg/kg
Method: This behavior lasted 3-5 min and could possibly be related to the TRPV1 agonist activity of compound RGM8-51.
Rats were allocated into 2 groups to receive RGM8-51 and vehicle (DMSO 2% i.pl., or 150 µL/kg i.p.) by either the i.pl. (10 µg in 20 µL; n = 5 animals) or i.p. (10 or 30 mg/kg in 150 µL/kg; n = 8 animals) route. Responses to cold/heat/mechanical stimulation were assessed 30 min before and 30 min after RGM8-51 or vehicle injection. Behavioral testing prior to drug administration served to ascertain baseline conditions and the stability of cold, heat and mechanical hypersensitivity after surgery. RGM-8-51 stock was prepared in DMSO (Sigma-Aldrich) and diluted in saline for injections. Data are given as the mean ± standard error of the mean (SEM) of the corresponding number of behavioral measurements/animals used. Statistical analysis was performed by using the paired t-test (GraphPad 8; San Diego, CA, USA).

serum proteins = test: Protein binding; type: in vitro ADME, human
[1] = test system: NTG-induced mechanical hypersensitivity in C57BL6 mice; test: NTG-induced mechanical hypersensitivity, von Frey test; type: in vivo, mouse
Description: Administration of NTG intermittently produces a baseline hypersensitivity to mechanical stimulation, which can be measured by the von Frey test. The mechanical stimulus was applied at different times to obtain the time course of the effects produced after compound administration, and both male and female mice were used to investigate a possible sex dimorphism.
C57BL6 mice (males and females, ≈25 g) (Envigo, Blackthorn, UK) were used for the study. All experiments were approved by the Institutional Animal and Ethical Committee of the Universidad Miguel Hernandez where experiments were conducted and they were in accordance with the guidelines of the Economic European Community and the Committee for Research and Ethical Issues of the International Association for the Study of Pain. All parts of the study concerning animal care were performed under the control of veterinarians. […] The 50% response threshold was calculated using the following formula:50% (g) threshold = (10^(Xf + kd))/10,000 where Xf is the value of the last von Frey filament applied; k is a correction factor based on pattern of responses (from the Dixon’s calibration table); d is the mean distance in log units between stimuli (here, 0.4).
Von Frey threshold for each animal was calculated, according to the formula, and data analysis was performed by using GraphPad 6.0. […]

T1 sequence (Q8R455 whole entry): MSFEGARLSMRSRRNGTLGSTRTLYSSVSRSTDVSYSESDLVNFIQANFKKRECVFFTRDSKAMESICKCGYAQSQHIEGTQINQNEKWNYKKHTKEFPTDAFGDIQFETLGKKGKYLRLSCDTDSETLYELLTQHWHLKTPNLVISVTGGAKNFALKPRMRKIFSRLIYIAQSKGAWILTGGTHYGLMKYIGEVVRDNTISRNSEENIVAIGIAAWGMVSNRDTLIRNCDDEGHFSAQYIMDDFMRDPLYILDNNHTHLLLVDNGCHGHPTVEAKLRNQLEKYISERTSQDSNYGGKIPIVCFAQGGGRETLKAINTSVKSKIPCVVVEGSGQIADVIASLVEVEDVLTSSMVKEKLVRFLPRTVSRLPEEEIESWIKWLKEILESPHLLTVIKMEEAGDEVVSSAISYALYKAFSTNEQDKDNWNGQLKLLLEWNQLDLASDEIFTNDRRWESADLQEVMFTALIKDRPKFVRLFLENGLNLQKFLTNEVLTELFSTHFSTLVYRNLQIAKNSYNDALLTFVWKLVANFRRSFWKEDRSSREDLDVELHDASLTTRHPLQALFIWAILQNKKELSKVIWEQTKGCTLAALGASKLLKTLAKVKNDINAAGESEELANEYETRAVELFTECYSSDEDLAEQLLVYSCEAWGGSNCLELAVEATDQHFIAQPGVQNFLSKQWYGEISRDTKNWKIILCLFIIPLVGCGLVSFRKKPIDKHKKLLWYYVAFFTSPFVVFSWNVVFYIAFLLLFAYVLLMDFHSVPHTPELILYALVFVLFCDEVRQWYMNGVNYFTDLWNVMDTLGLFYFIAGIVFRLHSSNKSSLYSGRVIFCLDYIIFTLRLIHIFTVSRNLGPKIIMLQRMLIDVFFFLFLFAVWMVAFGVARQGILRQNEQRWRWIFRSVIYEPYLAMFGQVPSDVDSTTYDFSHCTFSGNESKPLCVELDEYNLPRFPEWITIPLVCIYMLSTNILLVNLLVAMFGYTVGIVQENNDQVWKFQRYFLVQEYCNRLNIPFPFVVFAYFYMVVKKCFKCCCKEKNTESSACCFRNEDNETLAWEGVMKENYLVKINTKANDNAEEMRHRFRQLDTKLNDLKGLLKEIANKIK

**Q.** What does the source list for `C[C@@H]1C(=O)N(C[C@H](Cc2ccccc2)N(Cc2ccccc2)Cc2ccccc2)[C@]1(Cc1ccccc1)C(=O)OC(C)(C)C` [RGM8-51, 4(S)-Benzyl-3S-methyl-4-(tert-butoxy)carbonyl-1-[(2′S-dibenzylamino-3′-phenyl)prop-1′-yl]-2-oxoazetidine]?
**A.** menthol-evoked outward rectifying current (rTRPM8; 10 μM compound, 100 µM menthol): clearly reduced; IC50 (rTRPM8; HEK293-rTRPM8, 100 μM menthol, holding voltage −60 mV): 970 ± 1560 nM; duration of writhing behavior (rats): 3 to 5 min; writhing behavior (rats): writhing behavior was observed in a small number of animals; Binding to proteins (%) (serum proteins): 100% and 99–100%; NTG-induced mechanical hypersensitivity, male mice ([1]; 30 mg/kg i.p., 60 min post-administration (only this dose and time)): significantly blocked; NTG-induced mechanical hypersensitivity, female mice ([1]; 10 and 30 mg/kg i.p., significant at 30 min, lasting even after 120 min): fully blocked; also recorded: significantly reduces the hypersensitivity threshold induced by NTG
